This note sets out measurements from US9073931B2, “Liver X receptor modulators” (Vitae Pharmaceuticals, Inc., priority 2012, dated 2015).

Where two headings read alike, the source gives them in different places.

For experiment [1], the target named is LXR β LBD protein (Homo sapiens (Human), UniProt P55055). The experiment can be described thus: LXR β radioligand binding assay (SPA, [3H]T0901317 competition). Conditions: competition with 15 nM [3H]T0901317, LXRβ LBD.
For experiment [2], the target named is T1, LBD of LXRβ (Homo sapiens (Human), UniProt P55055). The experiment is described as follows: cell-based.
T1 sequence (P55055 222-460): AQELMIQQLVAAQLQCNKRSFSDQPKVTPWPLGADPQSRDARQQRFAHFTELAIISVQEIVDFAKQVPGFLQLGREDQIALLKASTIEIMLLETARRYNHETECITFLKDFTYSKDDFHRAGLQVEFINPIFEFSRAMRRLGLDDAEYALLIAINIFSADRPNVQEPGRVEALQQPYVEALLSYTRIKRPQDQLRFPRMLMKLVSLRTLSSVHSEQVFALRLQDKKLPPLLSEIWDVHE
The target in experiment [3] is T1, LBD of LXRβ.

Sequence of LXR β LBD protein (P55055 222-460): as above

Regarding `CCOC(=O)c1cnc(N2CCn3c(nc4cc(CO)c(S(C)(=O)=O)cc43)[C@H]2C(C)C)nc1C(F)(F)F` [Compound E12, (R)-ethyl 2-(8-(hydroxymethyl)-1-isopropyl-7-(methylsulfonyl)-3,4-dihydrobenzo[4,5]imidazo[1,2-a]pyrazin-2(1H)-yl)-4-(trifluoromethyl)pyrimidine-5-carboxylate], the affinity in experiment [1], expressed as Ki, was 6 nM. Also, in experiment [2], the EC50 worked out at 50 nM.
In turn, `CC(C)[C@@H]1c2cc3ccc(S(C)(=O)=O)cc3n2CCN1c1ncc(CO)c(C(F)(F)F)n1` [Compound E25a, (R)-(2-(1-isopropyl-7-(methylsulfonyl)-3,4-dihydropyrazino[1,2-a]indol-2(1H)-yl)-4-(trifluoromethyl)pyrimidin-5-yl)methanol] registered an EC50 in experiment [3] of 83 nM. Moreover, in experiment [1], the affinity, expressed as Ki, was 6 nM.
Consider `CC(C)[C@H]1c2nc3cc(CO)c(S(C)(=O)=O)cc3n2CCN1c1ncc(C(N)=O)c(C(F)(F)F)n1` (single isomer, unassigned) [Compound E15b], for which, in experiment [1], the Ki was more than 2500 nM. The EC50 in experiment [2] is more than 20000 nM.
The corresponding values for `CC(C)[C@H]1c2nc3cc(CO)c(S(C)(=O)=O)cc3n2CCN1c1ncc(CO)c(C2CC2)n1` (single isomer, unassigned) [Compound E20b] are more than 2500 nM and more than 20000 nM.
As for `CC(C)C1c2cc3cc(CO)c(S(C)(=O)=O)cc3n2CCN1c1ncc(C(C)(C)O)c(C(F)(F)F)n1` (single isomer, unassigned) [Compound E27b, 2-(2-(8-(hydroxymethyl)-1-isopropyl-7-(methylsulfonyl)-3,4-dihydropyrazino[1,2-a]indol-2(1H)-yl)-4-(trifluoromethyl)pyrimidin-5-yl)propan-2-ol], in experiment [3], a half-maximal effect (EC50) was put at 1440 nM. This compound had a Ki in experiment [1] of 712 nM.
The compound `CC(C)[C@H]1c2nc3cc(CO)c(S(C)(=O)=O)cc3n2CCN1c1ncc(C(=O)N(C)C)c(C(F)(F)F)n1` (single isomer, unassigned) [Compound E17b] gave a Ki in experiment [1] of more than 2500 nM. A half-maximal effect in experiment [2] (EC50) was put at 4900 nM.
In turn, `CC(=O)c1cnc(N2CCn3c(cc4ccc(S(C)(=O)=O)cc43)[C@@H]2C(C)C)nc1C(F)(F)F` [Compound E22b, (S)-1-(2-(1-isopropyl-7-(methylsulfonyl)-3,4-dihydropyrazino[1,2-a]indol-2(1H)-yl)-4-(trifluoromethyl)pyrimidin-5-yl)ethanone] showed an EC50 in experiment [3] of 11500 nM. Besides, in experiment [1], the Ki is more than 2500 nM.
For the compound `CC(C)[C@H]1c2nc3cc(CO)c(S(C)(=O)=O)cc3n2CCN1c1ncc(C(C)(C)O)c(C(F)(F)F)n1` (single isomer, unassigned) [Compound E7b], the Ki in experiment [1] was more than 2500 nM. This compound showed an EC50 in experiment [2] of 2180 nM.
As to `CC(O)c1cnc(N2CCn3c(cc4ccc(S(C)(=O)=O)cc43)C2C(C)C)nc1C(F)(F)F` (single isomer, unassigned) [Compound E24c, 1-(2-(1-isopropyl-7-(methylsulfonyl)-3,4-dihydropyrazino[1,2-a]indol-2(1H)-yl)-4-(trifluoromethyl)pyrimidin-5-yl)ethanol], a half-maximal effect in experiment [3] (EC50) was put at 18200 nM. This compound also came in with a Ki in experiment [1] of 1690 nM.
The compound `Cc1cnc(N2CCn3c(nc4cc(CO)c(S(C)(=O)=O)cc43)[C@H]2C(C)C)nc1C(F)(F)F` [Compound E21, (R)-(1-isopropyl-2-(5-methyl-4-(trifluoromethyl)pyrimidin-2-yl)-7-(methylsulfonyl)-1,2,3,4-tetrahydrobenzo[4,5]imidazo[1,2-a]pyrazin-8-yl)methanol] displayed a Ki in experiment [1] of 10 nM. Also, the midpoint of the response in experiment [2], the EC50, lay at 10 nM.
`CC(C)C1c2nc3ccc(S(C)(=O)=O)cc3n2CCN1c1ncc(C(C)(C)O)c(C(F)(F)F)n1` (racemic) [Compound E2, 2-(2-(1-isopropyl-7-(methylsulfonyl)-3,4-dihydrobenzo[4,5]imidazo[1,2-a]pyrazin-2(1H)-yl)-4-(trifluoromethyl)pyrimidin-5-yl)propan-2-ol] returned a Ki in experiment [1] of 176 nM. This compound also displayed an EC50 in experiment [2] of 377 nM.
In experiment [3], `CC(=O)c1cnc(N2CCn3c(cc4ccc(S(C)(=O)=O)cc43)[C@H]2C(C)C)nc1C(F)(F)F` [Compound E22a, (R)-1-(2-(1-isopropyl-7-(methylsulfonyl)-3,4-dihydropyrazino[1,2-a]indol-2(1H)-yl)-4-(trifluoromethyl)pyrimidin-5-yl)ethanone] gave an EC50 of 107 nM. This compound showed a Ki in experiment [1] of 12 nM.
In turn, `CC(=O)c1cnc(N2CCn3c(nc4ccc(S(C)(=O)=O)cc43)C2C(C)C)nc1C(F)(F)F` (racemic) [Compound E1, 1-(2-(1-isopropyl-7-(methylsulfonyl)-3,4-dihydrobenzo[4,5]imidazo[1,2-a]pyrazin-2(1H)-yl)-4-(trifluoromethyl)pyrimidin-5-yl)ethanone] yielded an inhibitory constant (Ki) in experiment [1] of 191 nM. In experiment [2], a half-maximal effect (EC50) was put at 350 nM.
For the compound `CC(O)c1cnc(N2CCn3c(cc4ccc(S(C)(=O)=O)cc43)C2C(C)C)nc1C(F)(F)F` (single isomer, unassigned) [Compound E24b, 1-(2-(1-isopropyl-7-(methylsulfonyl)-3,4-dihydropyrazino[1,2-a]indol-2(1H)-yl)-4-(trifluoromethyl)pyrimidin-5-yl)ethanol], a half-maximal effect in experiment [3] (EC50) was put at 150 nM. In experiment [1], this compound displayed an inhibition constant Ki of 20 nM.
In experiment [3], `CC(C)[C@@H]1c2cc3ccc(S(C)(=O)=O)cc3n2CCN1c1ncc(C(C)(C)O)c(C(F)(F)F)n1` [Compound E23a, (R)-2-(2-(1-isopropyl-7-(methylsulfonyl)-3,4-dihydropyrazino[1,2-a]indol-2(1H)-yl)-4-(trifluoromethyl)pyrimidin-5-yl)propan-2-ol] registered an EC50 of 306 nM. This compound also returned a Ki in experiment [1] of 21 nM.
Regarding `CC(C)[C@@H]1c2nc3cc(CO)c(S(C)(=O)=O)cc3n2CCN1c1ncc(CO)c(C2CC2)n1` (single isomer, unassigned) [Compound E20a], the affinity in experiment [1] corresponds to a Ki of 110 nM. For the same compound, the EC50 in experiment [2] was more than 20000 nM.
The corresponding values for `CCCC(O)c1cnc(N2CCn3c(nc4cc(CO)c(S(C)(=O)=O)cc43)[C@H]2C(C)C)nc1C(F)(F)F` (single isomer, unassigned) [Compound E11b] are 23 nM and 103 nM.
For `CCCC(O)c1cnc(N2CCn3c(nc4cc(CO)c(S(C)(=O)=O)cc43)[C@H]2C(C)C)nc1C(F)(F)F` (single isomer, unassigned) [Compound E11a], in that order: 14 nM and 68 nM.
As to `CCOC(=O)c1cnc(N2CCn3c(cc4cc(CO)c(S(C)(=O)=O)cc43)C2C(C)C)nc1C(F)(F)F` (racemic) [Compound E28, (±)-Ethyl 2-(8-(hydroxymethyl)-1-isopropyl-7-(methylsulfonyl)-3,4-dihydropyrazino[1,2-a]indol-2(1H)-yl)-4-(trifluoromethyl)pyrimidine-5-carboxylate], in experiment [1], the affinity, expressed as Ki, was 5 nM. This compound also displayed an EC50 in experiment [2] of 72 nM.
The compound `CC(O)c1cnc(N2CCn3c(cc4ccc(S(C)(=O)=O)cc43)C2C(C)C)nc1C(F)(F)F` (single isomer, unassigned) [Compound E24d, 1-(2-(1-isopropyl-7-(methylsulfonyl)-3,4-dihydropyrazino[1,2-a]indol-2(1H)-yl)-4-(trifluoromethyl)pyrimidin-5-yl)ethanol] returned an EC50 in experiment [3] of more than 20000 nM. This compound came in with a Ki in experiment [1] of more than 2500 nM.
Regarding `CC(C)C1c2nc3ccc(S(C)(=O)=O)cc3n2CCN1c1ncc(CO)c(C(F)(F)F)n1` (racemic) [Compound E4, (2-(1-isopropyl-7-(methylsulfonyl)-3,4-dihydrobenzo[4,5]imidazo[1,2-a]pyrazin-2(1H)-yl)-4-(trifluoromethyl)pyrimidin-5-yl)methanol], the Ki in experiment [1] came to 137 nM. The compound also showed an EC50 in experiment [2] of 293 nM.
The compound `CC(C)[C@H]1c2cc3ccc(S(C)(=O)=O)cc3n2CCN1c1ncc(C(C)(C)O)c(C(F)(F)F)n1` [Compound E23b, (S)-2-(2-(1-isopropyl-7-(methylsulfonyl)-3,4-dihydropyrazino[1,2-a]indol-2(1H)-yl)-4-(trifluoromethyl)pyrimidin-5-yl)propan-2-ol] came in with an EC50 in experiment [3] of 1340 nM. Further, the affinity in experiment [1], expressed as Ki, was 2440 nM.
`CC(C)[C@@H]1c2nc3cc(CO)c(S(C)(=O)=O)cc3n2CCN1c1ncc(C(C)(C)O)c(C(F)(F)F)n1` (single isomer, unassigned) [Compound E7a]: the affinity in experiment [1] corresponds to a Ki of 14 nM. In experiment [2], this compound yielded an EC50 of 23 nM.
The corresponding values for `CC(C)[C@@H]1c2nc3cc(CO)c(S(C)(=O)=O)cc3n2CCN1c1ncc(C(=O)N(C)C)c(C(F)(F)F)n1` (single isomer, unassigned) [Compound E17a] are 220 nM and more than 20000 nM.
The corresponding values for `COc1nc(N2CCn3c(nc4cc(CO)c(S(C)(=O)=O)cc43)[C@H]2C(C)C)ncc1C(F)(F)F` [Compound E18, (R)-(1-isopropyl-2-(4-methoxy-5-(trifluoromethyl)pyrimidin-2-yl)-7-(methylsulfonyl)-1,2,3,4-tetrahydrobenzo[4,5]imidazo[1,2-a]pyrazin-8-yl)methanol] are 8 nM and 24 nM.
The corresponding values for `CC(C)[C@@H]1c2nc3cc(CO)c(S(C)(=O)=O)cc3n2CCN1c1ncc(C(N)=O)c(C(F)(F)F)n1` (single isomer, unassigned) [Compound E15a] are 240 nM and more than 20000 nM.
`CC(=O)c1cnc(N2CCn3c(cc4cc(CO)c(S(C)(=O)=O)cc43)C2C(C)C)nc1C(F)(F)F` (racemic) [Compound E26, (±)-1-(2-(8-(hydroxymethyl)-1-isopropyl-7-(methylsulfonyl)-3,4-dihydropyrazino[1,2-a]indol-2(1H)-yl)-4-(trifluoromethyl)pyrimidin-5-yl)ethanone] registered a Ki in experiment [1] of 7 nM. The EC50 in experiment [2] was 16 nM.
For `COC(=O)c1cnc(N2CCn3c(nc4cc(CO)c(S(C)(=O)=O)cc43)[C@H]2C(C)C)nc1C(F)(F)F` [Compound E30, (R)-methyl 2-(8-(hydroxymethyl)-1-isopropyl-7-(methylsulfonyl)-3,4-dihydrobenzo[4,5]imidazo[1,2-a]pyrazin-2(1H)-yl)-4-(trifluoromethyl)pyrimidine-5-carboxylate], in that order: 10 nM and 17 nM.
